Data taken from patent publication US9511053B2, “Nitric oxide scavengers” (Baxter International Inc., priority 2004, dated 2016).
Each block holds one molecule with its values, some of them ahead of it.

Columns and labels:
[1] = Solubility in phosphate buffer; type: physicochemical
Description: Synthesis of 1,3-dihydroxy-2-(2-thienyl)-4,4,5,5,-tetramethylimidazolidine (compound 4 where R is compound 4c) was conducted as shown on FIG. 1. Anhydro adduct (compound 3 where R is compound 4c) was synthesized from treatment of 2,3-bis-(hydroxyamino)-2,3-dimetylbutansulfate (compound 1 where R is compound 4c) and 2-thiophenecarboxaldehyde (compound 2 where R is compound 4c) in water and methanol where compound 3 was a stable white solid insoluble in water. Compound 3 was oxidized by lead oxide in chloroform to form blue crystals (compound 4 where R is 4c). […] The nitronyl nitroxide monoradicals (compound 4 where R is compound 4a or 4b) have been tested for nitric oxide scavenge activity as described below in greater detail.

[2] = Stability of the nitronyl nitroxide monoradical on isolation; type: physicochemical; conditions: after oxidation with manganese dioxide in ether and column chromatography
Description: Synthesis of 1,3-Dihydroxy-2-(2,4-dihydroxyphenyl)-4,4,5,5,-tetramethylimidazolidine (compound 4 where R is compound 4a) was conducted as shown in FIG. 1. Anhydro adduct compound 3 where R is compound 4a was synthesized from treatment of 2,3-bis-(hydroxyamino)-2,3-dimetylbutansulfate (compound 1 where R is compound 4a) and 2,4-dihydroxybenzaldehyde (compound 2 where R is compound 4a) in a mixture of water and methanol. The nitronyl nitroxide monoradical (compound 4 where R is compound 4a) was obtained after oxidation of compound 3 (where R is compound 4a) with manganese dioxide in ether. Compound 4 was very unstable where only 2.5 mg of compound 4 was obtained after column chromatography.

[3] = NO scavenger assessment: direct measurement of nitric oxide with NO-selective microelectrode; type: biochemical; conditions: anaerobic, room temperature, phosphate buffer 50 mM pH 7.4
Description: The nitric oxide (NO) scavenging activity of various compounds was determined by the direct measurement of nitric oxide. Using a NO-selective microelectrode (World Precision Instruments, ISO-NO Mark II) the nitric oxide concentration was monitored upon the addition of the test compound. The reaction rate constant was calculated for each compound. Test compounds were added in molar excess, and therefore pseudo first-order reaction kinetics were observed. The rate constant (ln ks) for each compound was calculated. Reactions were performed under anaerobic conditions at room temperature, in phosphate buffer (50 mM, pH 7.4).

[4] = test system: anesthetized rats treated with LPS to induce hypotension; assay: Hydroxocobalamin animal study: MAP and HR of anesthetized rats treated with LPS to induce hypotension; type: in vivo, Sprague-Dawley rats
Description: Applicants have conducted a study to assess the effect of hydroxocobalamin on the mean arterial pressure (MAP) and heart rate (HR) of anesthetized rats that had been treated with LPS to induce hypotension as described in greater detail below.
Three male Sprague-Dawley rats were acutely instrumented with femoral arterial and venous catheters. Rats were initially anesthetized using a 60 mg/kg i.p. dose of Nembutal (sodium pentobarbital.) Each rat was then instrumented with one arterial catheter for blood pressure measurement, and two venous catheters for test article administration, and infusion of Nembutal (0.42 mL/kg/hr) for maintenance of surgical anesthesia. After placement of the catheters, rats were moved to plexiglass boxes to begin hemodynamic measurements. Baseline data were collected for 30 minutes prior to experimental manipulation in order to verify that all rats were properly anesthetized, and that baseline MAP and HR were within acceptable baseline ranges. Following baseline data collection, each rat received a 5 mg/kg intravenous dose of LPS at a rate of 1 mL/min. After achieving a sustained hypotension at approximately 60 minutes after the LPS infusion, one rat received a 6 mL/kg intravenous dose of hydroxocobalamin (14.5 mM in PBS) over a period of one hour. The remaining two rats each received a 4.57 mL/kg intravenous dose of saline over a period of one hour. MAP and HR measurements continued for 2 hours after hydroxocobalamin or saline infusion. Following LPS administration, all three rats received a continuous intravenous administration of Lactated Ringer's solution in order to prevent dehydration (2.4 mL/kg/hr). Due to a limited amount of hydroxocobalamin, it was only possible to dose one animal with this compound.

SMILES: CC1(C)N(O)C(c2ccc(O)cc2O)N(O)C1(C)C [4a, 1,3-Dihydroxy-2-(2,4-dihydroxyphenyl)-4,4,5,5,-tetramethylimidazolidine]
solubility in phosphate buffer [1]: soluble in phosphate buffer
stability [2]: very unstable

SMILES: CC1(C)N([O])C(c2ccc(C(=O)O)cc2)=[N+]([O-])C1(C)C [Carboxy-PTIO]
Rate of NO Scavenging, ln ks ([3]; Molar ratio scavenger to NO 28:1): 3.8
Rate of NO Scavenging, ln ks ([3]; Molar ratio scavenger to NO 56:1): 3.9
Rate of NO Scavenging, ln ks ([3]; Molar ratio scavenger to NO 91:1): 3.5
Rate of NO Scavenging, ln ks ([3]; Molar ratio scavenger to NO 129:1): 3.4

SMILES: C/C1=C2/[N-][C@H]([C@H](CC(N)=O)[C@@]2(C)CCC(=O)NC[C@@H](C)OP(=O)([O-])OC2C(O)[C@@H](n3cnc4cc(C)c(C)cc43)O[C@@H]2CO)[C@]2(C)N=C(/C(C)=C3N=C(/C=C4N=C1[C@@H](CCC(N)=O)C\4(C)C)[C@@H](CCC(N)=O)[C@]\3(C)CC(N)=O)[C@@H](CCC(N)=O)[C@]2(C)CC(N)=O.CC(=O)[O-].[Co+3] (some centres unmarked) [Vitamin B12a (acetate)]
Rate of NO Scavenging, ln ks ([3]; Molar ratio scavenger to NO 33:1): 3.7
Rate of NO Scavenging, ln ks ([3]; Molar ratio scavenger to NO 47:1): 3.4
Rate of NO Scavenging, ln ks ([3]; Molar ratio scavenger to NO 142:1): 3.7
Rate of NO Scavenging, ln ks ([3]; Molar ratio scavenger to NO 277:1): 3.1

SMILES: C/C1=C2/[N-][C@H]([C@H](CC(N)=O)[C@@]2(C)CCC(=O)NC[C@@H](C)OP(=O)([O-])O[C@H]2[C@@H](O)[C@@H](n3cnc4cc(C)c(C)cc43)O[C@@H]2CO)[C@]2(C)N=C(/C(C)=C3N=C(/C=C4N=C1[C@@H](CCC(N)=O)C\4(C)C)[C@@H](CCC(N)=O)[C@]\3(C)CC(N)=O)[C@@H](CCC(N)=O)[C@]2(C)CC(N)=O.[Co+3].[OH-] [hydroxocobalamin]
MAP below baseline levels ([4]; 60-180 minutes post-LPS (5 mg/kg i.v.), 6 mL/kg i.v. of 14.5 mM in PBS over one hour from 60 min post-LPS, one rat): 10-20 mmHg
survival ([4]; LPS 5 mg/kg i.v., 6 mL/kg i.v. of 14.5 mM in PBS over one hour, one rat, both saline rats died): survived the entire experiment
effect on HR and MAP (in words) ([4]; anesthetized rat with LPS-induced hypotension, summary): increased HR and allowed MAP to be maintained
HR above baseline levels ([4]; from 60 minutes post-LPS infusion, 6 mL/kg i.v. of 14.5 mM in PBS over one hour, one rat): approximately 140 bpm

Second part, led by results:

solubility in phosphate buffer [1]: soluble in phosphate buffer
SMILES: CC1(C)N(O)C(c2ccncc2)N(O)C1(C)C [NN-2, 1,3-Dihydroxy-2-(4-pyridyl)-4,4,5,5,-tetramethylimidazolidine]
Rate of NO Scavenging, ln ks ([3]; Molar ratio scavenger to NO 42:1): 3.7
Rate of NO Scavenging, ln ks ([3]; Molar ratio scavenger to NO 111:1): 3.4

solubility in phosphate buffer [1]: soluble in phosphate buffer
SMILES: CC1(C)N(O)C(c2cccs2)N(O)C1(C)C [NN-3, 1,3-Dihydroxy-2-(2-thienyl)-4,4,5,5,-tetramethylimidazolidine]
Rate of NO Scavenging, ln ks ([3]; Molar ratio scavenger to NO 71:1): 2.8
Rate of NO Scavenging, ln ks ([3]; Molar ratio scavenger to NO 126:1): 2.8
